{"source": "patent US20190156929A1", "about": "“METHODS OF IMPROVING PATIENT COMPLIANCE TO TREAT CONTRAST-INDUCED INJURY” (Saghmos Therapeutics, Inc., priority 2017, published 2019)", "origin": "cited, not measured here", "tested_on": "contrast-induced nephropathy in patients undergoing coronary angiography/angioplasty", "conditions": "four published Phase 2 trials; compared with isotonic saline; patients e.g. with high serum creatinine levels"}
{"molecule": "COc1ccc(CN2CCNCC2)c(OC)c1OC", "note": "[Trimetazidine]", "values": [{"measurement": "reduction of the risk of contrast-induced nephropathy (CIN)", "value": "more effective than isotonic saline in reducing the risk of contrast-induced nephropathy (CIN)"}]}
